Assay [1] relates to DMN-induced rat liver fibrosis model. The experiment in a line: DMN-induced rat liver fibrosis model, orthogonal design. The format is in vivo, Wistar male rats. The settings on record: result in words; compared with original astragalus soup.
Assay [2] has as its system rats of bile duct ligation. The experiment in a line: Bile duct ligation (BDL) rat liver fibrosis model. Format: in vivo, SD male rats. To be noted: BDL 4 weeks; for Hyp (liver tissue Hyp content): intragastric once daily for 3 weeks from week 2; for Hyp (liver tissue Hyp content) / biliary liver fibrosis scores (integral): x±s. An excerpt:
Effect of active component compatibility of Astragalus soup of anti-hepatic fibrosis for rats of bile duct ligation
83 SD male rats, SPF grade, weighing 200˜220 g, by the Shanghai Experimental Animal Center of Chinese Academy of Sciences, Certificate of Conformity: SCXK (Shanghai) 2010-0005, fed on the Shanghai Medical University Experimental Animal Center, free access to water.
Model rats (75 rats) are cut along the ventral midline, exposing the common bile duct, conversely injected hardener into hilus hepatis, ligating proximal and distal ends of the common bile duct, cutting the middle, closing the abdomen for 4 weeks. Sham-operated rats (8 rats) only have abdomen cut, and closed after freeing the common bile duct.
Starting from the first day of 2nd week of modeling, the model rats were randomly divided into 5 groups of astragalus soup, A/B combination, A alone, B alone, and UDCA, each group has 12 rats. While continuing modeling, the groups of administration are intervened by eight times of clinical dose amount of a 65 kg adult body weight. Before using, the drug compositions of astragalus soup, A/B combination, A alone, B alone, and UDCA (UDCA: 80 mg·kg^−1·d^−1, ig) are respectively diluted with 10 ml of distilled water, and is processed with intragastric administration according to 10 ml/kg rat body weight dose, once daily for 3 weeks. And sham-operation control rats (8) and model control group (15) are set; rats in the normal group and the model control group are processed with intragastric administration by the same volume of distilled water.
At the end of 4th week, rats are executed to obtain test samples. HE staining and collagen staining of liver tissue, liver tissue Hyp content, serum liver function: ALT, aspartate aminotransferase, AST, and activity of alkaline phosphatase, ALP, albumin, Alb, and total bilirubin, TBil content.

In assay [3] the test system is DMN-induced rat liver fibrosis model. Nature of the assay: DMN-induced rat liver fibrosis model, orthogonal design. Format: in vivo, Wistar male rats. An excerpt:
The DMN-induced rat liver fibrosis model and analysis of orthogonal design is used to obtain the optimal ratio of the composition to lower collagen content in the liver.
160 Wistar male rats, (40 in normal group, 120 in the model group), clean level, body weight (150±10) g, provided by the Shanghai Experimental Animal Center of Chinese Academy of Sciences, and is fed, modeled, and observed in Clean Animal room of Shanghai Medical University Experimental Animal Center, free access to water.
Astragalus Astragalosides and Glycyrrhiza Acid are mixed by weight ratio 3:1, 4:1, 5:1 and 6:1, drug composition A+B in different proportions are randomly selected for subsequent experiments.
Referring to Ala-Kokko method of modeling (Ala-Kokko L, Pihlajaniemi T, Myers J C et al. Gene expression of type I, III and IV collagens in liver fibrosis induced by dimethylnitrosamine in the rat. Biochem J 1987; 244: 75-9.) DMN is diluted with saline into 0.5% solution, in the model group, 120 rats are intraperitoneally injected by […] dose, once per day, on the beginning 3 days of a week, for 4 weeks. In normal control group, 40 rats are intraperitoneally injected with normal saline of same dose.
Respectively at the end of three days of modeling, the end of two weeks of modeling, the end of three weeks of modeling, and the end of four weeks of modeling, 10 normal rats, 10 model rats are observed as a model of dynamic observation. Starting from the end of 2 weeks of modeling, the model rats were randomly divided into 1-6 groups of orthogonal design and model group, each having 10 rats. While continuing modeling, the groups of orthogonal design are intervened by eight times of clinical dose amount of a 65 kg adult body weight, administrated respectively in accordance with design amount. Before using, the drug composition is diluted with 10 ml of distilled water, and is processed with intragastric administration according to 10 ml/kg rat body weight dose, once daily for 2 weeks. And normal control rats (10) and model control group (10) are set; rats in the normal group and the model control groups are processed with intragastric administration by the same volume of distilled water.
Astragalus glycosides A, Glycyrrhiza Acid, B, and drugcomposition A+B are factors for evaluation, each factor were set from two levels (level 1=administration, level 2=no), to obtain the orthogonal design. Model groups and normal groups are set.
Measurement data is expressed as x±s, the SAS 9.1.2, DAS 2.1.1 and SPSS16.0 statistical software are used to process data, and single-factor analysis of variance is used for comparisons between multiple groups.

Data on 2 compounds can be found in patent US8846626B2, “Drug composition for treating chronic liver disease and its application” (Shuguang Hospital Affiliated with Shanghai University of …, priority 2010, dated 2014).

As for `CC1(C)[C@@H](O[C@H]2O[C@H](C(=O)O)[C@@H](O)[C@H](O)[C@H]2O[C@@H]2O[C@H](C(=O)O)[C@@H](O)[C@H](O)[C@H]2O)CC[C@]2(C)[C@H]3C(=O)C=C4[C@@H]5C[C@@](C)(C(=O)O)CC[C@]5(C)CC[C@@]4(C)[C@]3(C)CC[C@@H]12` [B, Glycyrrhiza Acid], in assay [1], the “reduces generating of TGF-β1” value is listed as “significantly better than the original astragalus soup”. In assay [2], the “Hyp (liver tissue Hyp content)” value was 772.00 ± 86.81^$ μg/g, wet liver weight; the “biliary liver fibrosis scores (integral)” value is given as 6.50 ± 0.84^$; the “serum liver function ALP” value turned out to be 77.22 ± 4.05 K/100 ml; the “serum liver function ALT” value came out at 26.66 ± 7.89 U/L. Besides, in assay [2], the “serum liver function AST” value stood at 93.67 ± 14.46 U/L, the “serum liver function Alb” value is reported as 25.07 ± 5.18 g/L and the “serum liver function TBil” value is recorded as 67.35 ± 7.39^$ μmol/L. For the same compound, the “Hyp (hydroxyproline content in liver tissue)” value in assay [3] (DMN modeling 4 weeks, intragastric once daily for 2 weeks from end of week 2, x±s) turned out to be 595.74 ± 109.74 µg/g. For the same compound, the “hyperplasia stages of rat liver collagen: stage 0” value in assay [3] (number of rats at stage 0, DMN 4 weeks) was 0. Moreover, the “hyperplasia stages of rat liver collagen: stage I” value in assay [3] (number of rats at stage I, DMN 4 weeks) is given as 0. The “hyperplasia stages of rat liver collagen: stage II” value in assay [3] (number of rats at stage II, DMN 4 weeks) was 5. In assay [3] (number of rats at stage III, DMN 4 weeks), the “hyperplasia stages of rat liver collagen: stage III” value is listed as 4. In addition, the “BMP-7 mRNA, protein and protein expression of P-Smad1/5/8 in liver tissue” value in assay [3] (result in words, liver fibrosis in rat liver tissues by DMN) is “significantly increase”. In assay [3] (serum, DMN 4 weeks, x±SD), the “serum liver function ALP” value turned out to be 38.77 ± 17.84 K/100 ml, the “serum liver function ALT” value came out at 55.18 ± 17.12 U/L, the “serum liver function AST” value is listed as 76.61 ± 14.09^ U/L and the “serum liver function Alb” value is listed as 23.11 ± 5.52 g/L. In assay [3] (serum, DMN 4 weeks, x±SD), the “serum liver function TBil” value amounted to 10.23 ± 5.42 µmol/L.
`C[C@H](CCC(=O)O)[C@H]1CC[C@H]2[C@@H]3[C@@H](O)C[C@@H]4C[C@H](O)CC[C@]4(C)[C@H]3CC[C@]12C` [UDCA, Ursodeoxycholic acid]: in assay [2], the “Hyp (liver tissue Hyp content)” value is 790.16 ± 129.85^$$ μg/g, wet liver weight; the “biliary liver fibrosis scores (integral)” value is on record as 6.83 ± 0.75^$$; the “serum liver function ALP” value came to 79.01 ± 5.80 K/100 ml; the “serum liver function ALT” value was 28.79 ± 8.61 U/L. Moreover, in assay [2], the “serum liver function AST” value was determined as 102.80 ± 26.01 U/L, the “serum liver function Alb” value was 24.20 ± 3.64 g/L and the “serum liver function TBil” value is 67.60 ± 9.62^$ μmol/L.
